Laboratory results published in publication PMC7033309, “π-Helix controls activity of oxygen-sensing diguanylate cyclases” (Bioscience Reports, 2020).

Experiments:
PccGCS [1] = target: T1, PccGCS (Pectobacterium carotovorum, UniProt C6D9C2); experiment: EnzChek pyrophosphate diguanylate cyclase turnover assay with purified protein, […] GTP; assay type: biochemical
T1 construct: gene PC1_2619; full-length PccGCS WT (His-tagged)

PccGCS [2] = target: T2, PccGCS (Pectobacterium carotovorum, UniProt C6D9C2, H237A/K238A); experiment: as above; assay type: biochemical
T2 construct: gene PC1_2619; full-length PccGCS H237A/K238A (His-tagged)
T2 sequence (C6D9C2 1-471 H237A/K238A): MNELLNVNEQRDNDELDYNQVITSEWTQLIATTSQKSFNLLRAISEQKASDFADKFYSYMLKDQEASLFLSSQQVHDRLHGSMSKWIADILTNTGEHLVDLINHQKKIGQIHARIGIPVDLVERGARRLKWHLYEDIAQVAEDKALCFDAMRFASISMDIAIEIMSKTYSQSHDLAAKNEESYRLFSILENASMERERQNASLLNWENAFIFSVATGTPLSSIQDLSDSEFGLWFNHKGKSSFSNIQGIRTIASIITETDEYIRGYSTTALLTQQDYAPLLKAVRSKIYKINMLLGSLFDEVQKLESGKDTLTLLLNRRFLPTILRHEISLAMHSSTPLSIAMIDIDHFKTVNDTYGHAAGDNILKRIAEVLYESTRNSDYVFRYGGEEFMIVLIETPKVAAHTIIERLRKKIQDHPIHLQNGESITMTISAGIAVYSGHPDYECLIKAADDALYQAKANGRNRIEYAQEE

Nc1nc2c(ncn2[C@@H]2O[C@H](COP(=O)(O)OP(=O)(O)OP(=O)(O)O)[C@@H](O)[C@H]2O)c(=O)[nH]1 [GTP]
EnzChek pyrophosphate diguanylate cyclase turnover assay with purified protein, (PccGCS [1]): 0.759 min⁻¹ | EnzChek pyrophosphate diguanylate cyclase turnover assay with purified protein, (PccGCS [2]): 0.0227 min⁻¹
